≈ marks a conversion by molar mass, not a printed value. Calls of active or inactive are those of the source. The calls are words filed in the database; no cut-off is given here.
Biological target: T1, Enoyl-[acyl-carrier-protein] reductase [NADH] (Mycobacterium tuberculosis) (UniProt P9WGR1)
T1 sequence (whole entry): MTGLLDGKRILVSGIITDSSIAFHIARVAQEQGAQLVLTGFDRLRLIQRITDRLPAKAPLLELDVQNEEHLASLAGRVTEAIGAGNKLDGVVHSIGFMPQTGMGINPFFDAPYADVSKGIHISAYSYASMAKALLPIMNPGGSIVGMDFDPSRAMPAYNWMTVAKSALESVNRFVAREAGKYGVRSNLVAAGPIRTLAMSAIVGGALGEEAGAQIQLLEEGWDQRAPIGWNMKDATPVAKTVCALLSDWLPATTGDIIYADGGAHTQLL
Settings: 2.4 uM
Description: Inhibition of Mycobacterium tuberculosis InhA at 2.4 uM

Question: For `O=C(Nc1cc(-c2ccccc2)c(O)c(-c2ccccc2)c1)C1CC(=O)N(C2CCCCC2)C1` (stereo in doubt; p64a), which inhibition is on record?
Answer: 72.7%

Biological target: T2, Enoyl-[acyl-carrier-protein] reductase [NADH] (Mycobacterium tuberculosis, UniProt P9WGR1)
T2 sequence (P9WGR1 whole entry): T1 sequence (whole entry)
Settings: not given

Question: For `O=C(Nc1cc(Cl)cc(Cl)c1)C1CC(=O)N(C2CCCCC2)C1` (stereo in doubt; d11), which IC50 is on record?
Answer: 0.39 µM

Question: Which IC50 does the source give for `O=C(Nc1cccc(-c2ccccc2)c1)C1CC(=O)N(C2CCCCC2)C1` (stereo in doubt; p24) here?
Answer: 0.39 µM

Question: `CN(Cc1c2ccccc2cc2ccccc12)C(=O)C1CC(=O)N(C2CCCCC2)C1` (configuration not stated) was tested. Which IC50 did it give?
Answer: 0.75 µM

Question: How did the IC50 turn out when `CN(Cc1c2ccccc2cc2ccccc12)C(=O)C1CC(=O)N(C2CCCCCCC2)C1` (configuration not stated) was run?
Answer: 0.62 µM

Question: How did the IC50 turn out when `O=C(Nc1cc(Br)cc(C(F)(F)F)c1)C1CC(=O)N(C2CCCCC2)C1` (configuration not stated) was run?
Answer: 0.85 µM

Question: Which IC50 does the source give for `O=C(Nc1cccc(Br)c1)C1CC(=O)N(c2ccccc2)C1` (configuration not stated) here?
Answer: 13.5 µM

Question: How did the IC50 turn out when `O=C(Nc1cccc(-c2ccccc2)c1)C1CC(=O)N(C2CC3CCC2C3)C1` (configuration not stated) was run?
Answer: 0.46 µM

Question: How did the IC50 turn out when `O=C(Nc1cccc(Cc2ccccc2)c1)C1CC(=O)N(C2CCCCC2)C1` (configuration not stated) was run?
Answer: 0.41 µM

Question: For `O=C(Nc1cc(Cl)cc(Cl)c1)C1CC(=O)N(C2CCCCC2)C1` (stereo in doubt; d11b), which IC50 is on record?
Answer: 0.2 µM

Question: How did the IC50 turn out when `O=C(Nc1cc(-c2ccccc2)c(O)c(-c2ccccc2)c1)C1CC(=O)N(C2CCCCCC2)C1` (configuration not stated) was run?
Answer: 0.27 µM

Question: How did the IC50 turn out when `CN(Cc1c2ccccc2cc2ccccc12)C(=O)C1CC(=O)N(C2CC3CCC2C3)C1` (configuration not stated) was run?
Answer: 0.85 µM

Question: `CN(Cc1c2ccccc2cc2ccccc12)C(=O)C1CC(=O)N(C2CCCCCC2)C1` (configuration not stated) was tested. Which IC50 did it give?
Answer: 0.32 µM

Question: How did the IC50 turn out when `Cc1ccc(Cl)cc1NC(=O)C1CC(=O)N(C2CCCCC2)C1` (configuration not stated) was run?
Answer: 0.97 µM

Question: `O=C(Nc1cccc(Br)c1)C1CC(=O)N(C2CCCCC2)C1` (configuration not stated) was tested. Which IC50 did it give?
Answer: 0.89 µM

Question: For `O=C(Nc1cc(Cl)cc(Cl)c1)C1CC(=O)N(C2CCCCC2)C1` (stereo in doubt; d11a), which IC50 is on record?
Answer: 8.16 µM

Question: For `O=C(Nc1cccc(-c2ccccc2)c1)C1CC(=O)N(C2CCCCC2)C1` (stereo in doubt; p24b), which IC50 is on record?
Answer: 0.255 µM

Question: With `O=C(Nc1cccc(-c2ccccc2)c1)C1CC(=O)N(C2CCCCC2)C1` (stereo in doubt; p24a) as the compound, how does the IC50 read?
Answer: 2.1 µM

Test system: Mycobacterium tuberculosis
Experiment: Antibacterial activity against Mycobacterium tuberculosis H37Rv by alamar blue assay
Format: functional
Settings: not given

Question: How did the MIC turn out when `CN(Cc1c2ccccc2cc2ccccc12)C(=O)C1CC(=O)N(C2CCCCC2)C1` (configuration not stated) was run?
Answer: 125 µM (≈ 51.8 µg/mL)

Question: With `CN(Cc1c2ccccc2cc2ccccc12)C(=O)C1CC(=O)N(C2CCCCCCC2)C1` (configuration not stated) as the compound, how does the MIC read?
Answer: 62.5 µM (≈ 27.7 µg/mL)

Question: For `O=C(Nc1cc(Br)cc(C(F)(F)F)c1)C1CC(=O)N(C2CCCCC2)C1` (configuration not stated), which MIC is on record?
Answer: 62.5 µM (≈ 27.1 µg/mL)

Question: How did the MIC turn out when `O=C(Nc1cccc(OCc2ccccc2)c1)C1CC(=O)N(C2CCCCC2)C1` (configuration not stated) was run?
Answer: 125 µM (≈ 49.1 µg/mL)

Question: Which MIC does the source give for `CN(Cc1c2ccccc2cc2ccccc12)C(=O)C1CC(=O)N(C2CC3CCC2C3)C1` (configuration not stated) here?
Answer: 125 µM (≈ 53.3 µg/mL)

Question: For `CN(Cc1c2ccccc2cc2ccccc12)C(=O)C1CC(=O)N(C2CCCCCC2)C1` (configuration not stated), which MIC is on record?
Answer: 125 µM (≈ 53.6 µg/mL)

Biological target: T1, Enoyl-[acyl-carrier-protein] reductase [NADH] (Mycobacterium tuberculosis)
Settings: 20 uM

Question: With `O=C(Nc1nnc(Cc2ccccc2)s1)C1CC(=O)N(C2CCCCC2)C1` (configuration not stated) as the compound, how does the Activity read?
Answer: inactive

Question: With `COCc1nnc(NC(=O)C2CC(=O)N(C3CCCCC3)C2)s1` (configuration not stated) as the compound, how does the Activity read?
Answer: inactive

Question: With `CCc1nnc(NC(=O)C2CC(=O)N(C3CCCCC3)C2)s1` (configuration not stated) as the compound, how does the Activity read?
Answer: inactive

Question: For `CN1CCN(C(=O)C2CC(=O)N(C3CCCCC3)C2)CC1` (configuration not stated), which Activity is on record?
Answer: inactive

Question: For `CCC(C)NC(=O)C1CC(=O)N(C2CCCCC2)C1` (configuration not stated), which Activity is on record?
Answer: inactive

Question: Which Activity does the source give for `O=C(C1CC(=O)N(C2CCCCC2)C1)N1CCN(c2ccccc2)CC1` (configuration not stated) here?
Answer: inactive

Question: For `Cc1nnc(NC(=O)C2CC(=O)N(C3CCCCC3)C2)s1` (configuration not stated), which Activity is on record?
Answer: inactive

Question: How did the Activity turn out when `O=C(Nc1nnc(CCc2ccccc2)s1)C1CC(=O)N(C2CCCCC2)C1` (configuration not stated) was run?
Answer: inactive

Question: With `O=C(NC1CCCC1)C1CC(=O)N(C2CCCCC2)C1` (configuration not stated) as the compound, how does the Activity read?
Answer: inactive

Question: How did the Activity turn out when `O=C(NC1CCCCC1)C1CC(=O)N(C2CCCCC2)C1` (configuration not stated) was run?
Answer: inactive

Question: How did the Activity turn out when `O=C(C1CC(=O)N(C2CCCCC2)C1)N1CCOCC1` (configuration not stated) was run?
Answer: inactive

Question: For `N#Cc1c(NC(=O)C2CC(=O)N(C3CCCCC3)C2)sc2c1CCCC2` (configuration not stated), which Activity is on record?
Answer: inactive

Biological target: T1, Enoyl-[acyl-carrier-protein] reductase [NADH] (Mycobacterium tuberculosis)
Settings: not given

Question: How did the Activity turn out when `COc1cccc(NC(=O)C2CC(=O)N(C3CCCCC3)C2)c1` (configuration not stated) was run?
Answer: inactive

Question: Which Activity does the source give for `NC(=O)c1cccc(NC(=O)C2CC(=O)N(C3CCCCC3)C2)c1` (configuration not stated) here?
Answer: inactive

Question: For `O=C(Nc1cccc(O)c1)C1CC(=O)N(C2CCCCC2)C1` (configuration not stated), which Activity is on record?
Answer: inactive

Question: Which Activity does the source give for `CC(=O)c1cccc(NC(=O)C2CC(=O)N(C3CCCCC3)C2)c1` (configuration not stated) here?
Answer: inactive

Question: For `CS(=O)(=O)Nc1cccc(NC(=O)C2CC(=O)N(C3CCCCC3)C2)c1` (configuration not stated), which Activity is on record?
Answer: inactive

Same assay, conditions: concentration not given here

Question: How did the inhibition turn out when `O=C(C1CC(=O)N(C2CCCCC2)C1)N1CCc2ccccc21` (configuration not stated) was run?
Answer: 65%
